# In US20240197761A1, “FUCOSYLATION AND IMMUNE MODULATION IN CANCER” (H. LEE MOFFITT CANCER CENTER AND RESEARCH INSTITUTE, INC., priority 2021, published 2024):
# “Also recorded” adds a separate entry of the source.
# Columns and labels:
# [1] = test system: TUBO (mouse BC); test: TUBO breast cancer growth and TILs in immunocompetent mice, L-fuc dose escalation; assay type: in vivo, Balb/C mice; settings: for TUBO tumor growth: immunocompetent Balb/C mice, L-fuc dose escalation (FIG. 3B)
# [2] = test system: SW1 tumors (shNT, shH2K1, shEB1, EB1 WT or N46G); test: H2K1/EB1 knockdown and glyco-fucomutant EB1 reconstitution mouse model; assay type: in vivo, C3H/HeN mice
# Excerpt: All animals were housed at the Vincent A. Stabile Research building animal facility at H. Lee Moffitt Cancer Center & Research Institute, which is fully accredited by the Association for Assessment and Accreditation of Laboratory Animal Care International (AAALAC, #434), and are managed in accordance with the Guide for the Care and Use of Laboratory Animals (“The Guide”), the Animal Welfare Regulations Title 9 Code of Federal Regulations Subchapter A, “Animal Welfare”, Parts 1-3 (AWR), the Public Health Service Policy on Humane Care and Use of Laboratory Animals (PHS Policy), and by the USF Institutional Animal Care and Use Committee's Principles and Procedures of Animal Care and Use (IACUC Principles). The experiments and protocols detailed in this study received institutional approval by the Moffitt IACUC (RIS00001625). Four-to-six-week-old female C3H/HeN and male C57BL6 mice were purchased from Charles Rivers Laboratories for the indicated experiments. Four-to-six-week-old male NSG mice from the Lau laboratory breeding colony were used for the indicated experiments. Power calculations were used to determine mouse cohort sizes to detect significant changes in tumor sizes. In general, 10 mice per indicated cohort to accommodate for incidental loss of mice due to issues beyond our control (e.g., incidental tumor ulceration that required exclusion from the study). Mouse tumor volumes were measured using length, width and depth divided by 2. At each experimental endpoint, mice were humanely euthanized using CO2 inhalation in accordance to the American Veterinary Medical Association guidelines. […] For all mouse models, 1×10^6 melanoma cells were injected subcutaneously in the right hind flanks of each mouse. Between 7-14 days, when the tumor volumes reached ˜150 mm^3, the mice were either supplemented with or without 100 mM L-fucose (Biosynth (Oak Terrace, IL)) via drinking water, which was provided ad libitum. When the tumors reached ˜2 cm^3, the animals were sacrificed, and the tumors either processed for flow cytometric profiling or for histological analysis as indicated. […]
# [3] = test system: BM-myeloid cells; test: Expression of MDSC biology-related genes in BM-myeloid cells; assay type: cell-based, mouse; settings: 24 or 72 hours after initial L-fuc treatment
# Method: The expression of key MDSC biology-related genes was measured at 24 or 72 hours after in initial L-fuc treatment of the cells. Reductions in ARGI, PARP, and CHOP expression (red boxes; the expression of these genes are known to be required for MDSC immunosuppression. Increase in STAT1 is shown in green.
# (§1) Next, we investigated the effect of L-fuc on NO production of bone marrow derived MDSCs (FIGS. 8A and 8B). We observed that L-fuc abrogated NO production in all cases. […] We also wanted to look at how L-fuc treatment effected the expression of immunosuppression genes (FIG. 9). We assessed the expression of key MDSC biology-related genes at 24 or 72 hours after in initial L-fuc treatment of the cells. Generally, we observed reductions in ARGI, PARP, and CHOP expression. In contrast we observed upregulation of STAT1. To further assess how L-fuc/fucosylation affects myeloid phenotype, we modulated fucosylation using DMSO (control), 2-fluoro-fucose (2FIF, fucosylation inhibitor), or L-fuc in mouse bone marrow-derived myeloid progenitors treated ±GM/G-CSF (FIG. 10). We profiled changes In M-MDSC vs. PMN-IMDSC, as well as moDC, as we observed immunostimulatory activity. […] Shown are the average values irom 12 mice. We also observed that L-fucose alters TLR profiles of dendritic cells (FIG. 11).
# [4] = test system: MDSCs co-cultured with T cells; test: MDSC immunosuppression of T cell proliferation (Cell Trace Violet) and IFNγ release/production in co-culture; assay type: cell-based, mouse; settings: for T cell proliferation with pretreated splenic MDSCs: FIG. 3F; for IFNγ release / production by T cells with modulated MDSCs: FIG. 3G, FIG. 8B
# Method: Tlhe myeloid cells, which were stimulated to imlmuno, suppressive MDSCs using GM/G-CSF, were divided into 3 treatment groups: (i) Treatment±250 uM L-fuc prior, duri ng, and after GM/G-CSF stimulation. Treatment±250 uM L-fuc during and after GM/G-CSF stimulation. (ii) Treatment±250 uM L-fuc only after GM/G-CSF stimulation. Greiss assay timepoints reier to hours after initial dose of L-fuc regardless of when cells were treated, L-fuc abrogated their ability to glenerate NO. […] We subsequently co-cultured the modulated MDSCs wilh T cells, which were then activated or not with CD3/CD28 beads and measured for IFNψ production. *. p •<0.05
# [5] = test system: 4T1 mouse breast tumor; test: 4T1 mouse breast tumor growth ± L-fucose supplemented water; assay type: in vivo, Balb/C mice; settings: 500 mM L-fucose supplemented water ad libitum from 100 mm^3 (FIG. 3H)
# Method: To determine which immune cell populations were affected by L-fucose, another mouse melanoma model treated with control or L-fucose-supplemented water was used. […] Rather than being immunosuppressive, these cells elicit immunostimulatory activity (at this point in terms of augmenting T cell activation) (FIG. 3). […] In fact, upon reaching 100 mm^3, 4T1 mouse breast tumor-bearing Balb/C mice were provided with control or 500 mM L-fucose supplemented water ad libitum and L-fucose suppressed tumor growth by 50% (FIG. 3H). Moreover, the number of TILs increased following administration of L-fucose (FIG. 3C). We next looked at the specific populations of cells proliferating in TILs following L-fucose administration. We saw a 3.1 fold increase in MDSC cell and CD4 T cells (FIG. 3D). To verify that the increases in the TIL populations were attributed to fucosylation, we treated mice with L-fucose or 2FF (fucosylation inhibitor) and observed the change in MDSC. We observed that L-fucose increased MDSC populations, but 2FF decreased MDSC (FIG. 3E). […] This shift is depicted in FIG. 4.
# [6] = test system: mouse bone marrow-derived myeloid progenitors; test: Myeloid phenotype profiling (M-MDSC, PMN-MDSC, moDC) of bone marrow-derived myeloid progenitors; assay type: cell-based; settings: ± GM/G-CSF, average values from 12 mice
# Method: as §1
compound,measurement,setting,value
C[C@H](O)[C@@H](O)[C@@H](O)[C@H](O)C=O [L-fucose],fold-change in TIL subsets: MDSCs,"[1]; 500 vs. 0 mM L-fuc, TUBO tumors (FIG. 3D)",3.1 fold
same,number of TILs/g tumor,[1]; FIG. 3C,increased
same,fold increase in TIL subsets: CD4 T cells,[1]; following L-fucose administration (FIG. 3D),3.1 fold
same,TUBO tumor growth,[1],dose dependent decrease
same,TUBO tumor growth,[1]; listed as L-fuc,suppresses
same,L-fuc-triggered tumor suppression and induction of total itICs,[2]; EB1 knockdown,completely abolished
same,control (shNT) tumor growth,[2]; non-targeting shRNA SW1 tumors,impaired
same,L-fuc-induced TIL and tumor growth suppression after EB1 knockdown and reconstitution,[2]; shEB1 tumors reconstituted with EB1 WT or N46G,rescued by reconstitution with only WT but not glyco-fucomutant EB1
same,"ARGI, PARP, and CHOP expression",[3],reductions
same,STAT1 expression,[3],upregulation
same,T cell proliferation with pretreated splenic MDSCs,[4],increased
same,T cell proliferation with pretreated splenic MDSCs,[4]; listed as L-fuc,decreases splenic MDSC immunosuppression
same,IFNγ release / production by T cells with modulated MDSCs,[4],increased
same,IFNγ release / production by T cells with modulated MDSCs,[4]; listed as L-fuc,significantly stimulated; also recorded: decreases splenic MDSC immunosuppression
same,suppression of tumor growth,[5],50%
same,"myeloid phenotype (M-MDSC vs. PMN-MDSC, moDC)",[6],"enrichment of a monocytic phenotype, including increased moDCs"
